Results as given in PubChem BioAssay AID248 (DTP/NCI, 2004).
Toxic doses and inconclusive results are not listed. Square brackets hold non-standard residues; d marks the D form. Peptide text beside a SMILES is read from it. * marks the point of attachment. ξ: configuration not given here. Tos = Cc1ccc(S(=O)(=O)*)cc1; ξY = NC(Cc1ccc(O)cc1)C(=O)O

Tested on: L1210 leukemia ip in BDF1 mice, survival T/C
Experiment: NCI In Vivo Anticancer Drug Screen. Data for tumor model L1210 Leukemia (intraperitoneal) in B6D2F1 (BDF1) mice
Conditions: endpoint: mean survival time, higher = longer survival
Outline: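 Tumor was transplanted into mice, which were then dosed with test compound or vehicle alone. Survival was recorded for each group, and the treated figure was expressed relative to the control figure.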

[1] = dose: 50.0 mg/kg/injection, schedule: Q01DX001 (ip), vehicle: carboxymethylcellulose (CMC)
[2] = dose: 100.0 mg/kg/injection, schedule: Q01DX001 (ip), vehicle: carboxymethylcellulose (CMC)
[3] = dose: 200.0 mg/kg/injection, schedule: Q01DX001 (ip), vehicle: carboxymethylcellulose (CMC)
[4] = dose: 400.0 mg/kg/injection, schedule: Q01DX001 (ip), vehicle: carboxymethylcellulose (CMC)
[5] = dose: 100.0 mg/kg/injection, schedule: Q01DX001 (ip), vehicle: saline
[6] = dose: 200.0 mg/kg/injection, schedule: Q01DX001 (ip), vehicle: saline
[7] = dose: 400.0 mg/kg/injection, schedule: Q01DX001 (ip), vehicle: saline
[8] = dose: 100.0 mg/kg/injection, schedule: Q01DX009 (ip), vehicle: saline with Tween-80
[9] = dose: 200.0 mg/kg/injection, schedule: Q01DX009 (ip), vehicle: saline with Tween-80
[10] = dose: 400.0 mg/kg/injection, schedule: Q01DX009 (ip), vehicle: saline with Tween-80

**Q.** `COc1nc(N)c([N+](=O)[O-])c(OC)n1` was tested. Which T/C (dose: 16.0 mg/kg/injection, schedule: Q01DX Z (ip), vehicle: methylcellulose (MC)) did it give?
**A.** 97 % of control

**Q.** What about the T/C (dose: 31.0 mg/kg/injection, schedule: Q01DX Z (ip), vehicle: methylcellulose (MC)) of the same molecule?
**A.** 90 % of control

**Q.** And the T/C (dose: 62.0 mg/kg/injection, schedule: Q01DX Z (ip), vehicle: methylcellulose (MC))?
**A.** 103 % of control

**Q.** What does the source list for `Cc1ccc(NC(=O)NCCCl)cc1`?
**A.** T/C [1]: 97 % of control; T/C [2]: 97 % of control; T/C [3]: 113 % of control; T/C [4]: 100 % of control

**Q.** For `CCCCCCCCCCCCCCCCOc1ccc(S(=O)(=O)N(Cc2ccccc2)Cc2ccccc2)cc1[N+](=O)[O-]`, which T/C (dose: 100.0 mg/kg/injection, schedule: Q04DX003 (ip), vehicle: saline with Tween-80) is on record?
**A.** 86 % of control

**Q.** What about the T/C (dose: 200.0 mg/kg/injection, schedule: Q04DX003 (ip), vehicle: saline with Tween-80) of the same molecule?
**A.** 95 % of control

**Q.** What about the T/C (dose: 400.0 mg/kg/injection, schedule: Q04DX003 (ip), vehicle: saline with Tween-80) of the same molecule?
**A.** 90 % of control

**Q.** What does the source list for `Cc1cn(C2OC(CO)C(O)C2O)c(=O)[nH]c1=O` (configuration not stated)?
**A.** T/C (dose: 3.75 mg/kg/injection, schedule: Q01DX Z (ip), vehicle: saline): 86 % of control; T/C (dose: 6.25 mg/kg/injection, schedule: Q03HX024 (ip), vehicle: saline): 102 % of control; T/C (dose: 7.5 mg/kg/injection, schedule: Q01DX Z (ip), vehicle: saline): 88 % of control; T/C (dose: 12.5 mg/kg/injection, schedule: Q03HX024 (ip), vehicle: saline): 94 % of control; T/C (dose: 25.0 mg/kg/injection, schedule: Q03HX024 (ip), vehicle: saline): 107 % of control; T/C (dose: 30.0 mg/kg/injection, schedule: Q01DX Z (ip), vehicle: saline): 86 % of control; T/C [1]: 116 % of control; T/C (dose: 50.0 mg/kg/injection, schedule: Q03HX024 (ip), vehicle: saline): 102 % of control; T/C (dose: 60.0 mg/kg/injection, schedule: Q01DX Z (ip), vehicle: saline): 92 % of control; T/C [2]: 97 % of control; T/C [5]: 87 % of control; T/C [3]: 106 % of control; T/C [6]: 92 % of control; T/C [4]: 95 % of control; T/C [7]: 90 % of control

**Q.** What does the source list for `Cc1c2c(cc3c1[nH]c1ccccc13)C(c1ccc(Cl)cc1)=NCC2`?
**A.** T/C [8]: 87 % of control; T/C [9]: 87 % of control; T/C [10]: 88 % of control

**Q.** What does the source list for `CCOC(=O)/C(C#N)=C1/CC2CCC1(C)OC2(C)C` (configuration not stated)?
**A.** T/C (dose: 100.0 mg/kg/injection, schedule: Q04DX003 (ip), vehicle: Klucel (hydroxypropylcellulose) (HPC)): 98 % of control; T/C (dose: 200.0 mg/kg/injection, schedule: Q04DX003 (ip), vehicle: Klucel (hydroxypropylcellulose) (HPC)): 96 % of control; T/C (dose: 400.0 mg/kg/injection, schedule: Q04DX003 (ip), vehicle: Klucel (hydroxypropylcellulose) (HPC)): 102 % of control

**Q.** Which results are given for `NC(Cc1c[nH]c2ccc(O)cc12)C(=O)O` (configuration not stated)?
**A.** T/C [2]: 95 % of control; T/C [3]: 102 % of control; T/C [4]: 100 % of control

**Q.** What does the source list for `Cn1ncc2c(N)[nH]nc21`?
**A.** T/C (dose: 75.0 mg/kg/injection, schedule: Q01DX001 (ip), vehicle: saline): 107 % of control; T/C (dose: 150.0 mg/kg/injection, schedule: Q01DX001 (ip), vehicle: saline): 90 % of control; T/C (dose: 300.0 mg/kg/injection, schedule: Q01DX001 (ip), vehicle: saline): 98 % of control

**Q.** With `C/C(=C\Nc1cccnc1)C(=O)c1ccc(F)cc1` as the molecule, how does the T/C [8] read?
**A.** 102 % of control

**Q.** And the T/C [9]?
**A.** 102 % of control

**Q.** What about the T/C [10] of the same molecule?
**A.** 98 % of control

**Q.** What does the source list for `Cc1ccc(NC(=O)NCc2ccco2)cc1`?
**A.** T/C (dose: 222.0 mg/kg/injection, schedule: Q01DX Z (ip), vehicle: methylcellulose (MC)): 94 % of control; T/C (dose: 333.0 mg/kg/injection, schedule: Q01DX Z (ip), vehicle: methylcellulose (MC)): 100 % of control; T/C (dose: 500.0 mg/kg/injection, schedule: Q01DX Z (ip), vehicle: methylcellulose (MC)): 94 % of control

**Q.** With `COc1ccc(C(=O)c2ccc([N+](=O)[O-])cc2)c(OC)c1` as the molecule, how does the T/C (dose: 100.0 mg/kg/injection, schedule: Q01DX001 (ip), vehicle: Klucel (hydroxypropylcellulose) (HPC)) read?
**A.** 101 % of control

**Q.** And the T/C (dose: 200.0 mg/kg/injection, schedule: Q01DX001 (ip), vehicle: Klucel (hydroxypropylcellulose) (HPC))?
**A.** 111 % of control

**Q.** Which results are given for `C1CCC2[N-]CC3CCCCC3[N-]CC3CCCCC3[N-]CC3CCCCC3[N-]CC2C1.[Cl][Fe]([Cl])([Cl])[Cl].[Fe+6]` (configuration not stated)?
**A.** T/C (dose: 12.5 mg/kg/injection, schedule: Q04DX002 (ip), vehicle: Klucel (hydroxypropylcellulose) (HPC)): 102 % of control; T/C (dose: 25.0 mg/kg/injection, schedule: Q04DX002 (ip), vehicle: Klucel (hydroxypropylcellulose) (HPC)): 102 % of control; T/C (dose: 50.0 mg/kg/injection, schedule: Q04DX002 (ip), vehicle: Klucel (hydroxypropylcellulose) (HPC)): 94 % of control

**Q.** How did the T/C (dose: 8.5 mg/kg/injection, schedule: Q01DX009 (ip), vehicle: saline with Tween-80) turn out when `CCCCN(C)/N=N\c1[nH]ncc1C(N)=O` was run?
**A.** 119 % of control

**Q.** And the T/C (dose: 13.0 mg/kg/injection, schedule: Q01DX009 (ip), vehicle: saline with Tween-80)?
**A.** 104 % of control

**Q.** What about the T/C (dose: 16.25 mg/kg/injection, schedule: Q01DX009 (ip), vehicle: saline with Tween-80) of the same molecule?
**A.** 115 % of control

**Q.** And the T/C (dose: 20.0 mg/kg/injection, schedule: Q01DX009 (ip), vehicle: saline with Tween-80)?
**A.** 115 % of control

**Q.** What about the T/C (dose: 30.5 mg/kg/injection, schedule: Q04DX003 (ip), vehicle: saline with Tween-80) of the same molecule?
**A.** 100 % of control

**Q.** And the T/C (dose: 44.0 mg/kg/injection, schedule: Q01DX009 (ip), vehicle: other)?
**A.** 165 % of control

**Q.** And the T/C (dose: 61.0 mg/kg/injection, schedule: Q04DX003 (ip), vehicle: saline with Tween-80)?
**A.** 108 % of control

**Q.** What about the T/C (dose: 65.0 mg/kg/injection, schedule: Q01DX009 (ip), vehicle: saline with Tween-80) of the same molecule?
**A.** 157 % of control

**Q.** And the T/C (dose: 66.0 mg/kg/injection, schedule: Q01DX009 (ip), vehicle: other)?
**A.** 184 % of control

**Q.** What about the T/C (dose: 77.25 mg/kg/injection, schedule: Q01DX001 (ip), vehicle: saline with Tween-80) of the same molecule?
**A.** 106 % of control

**Q.** What about the T/C (dose: 122.0 mg/kg/injection, schedule: Q04DX003 (ip), vehicle: saline with Tween-80) of the same molecule?
**A.** 119 % of control

**Q.** What about the T/C (dose: 150.0 mg/kg/injection, schedule: Q01DX009 (ip), vehicle: other) of the same molecule?
**A.** 114 % of control

**Q.** And the T/C (dose: 154.5 mg/kg/injection, schedule: Q01DX001 (ip), vehicle: saline with Tween-80)?
**A.** 117 % of control

**Q.** What about the T/C (dose: 309.0 mg/kg/injection, schedule: Q01DX001 (ip), vehicle: saline with Tween-80) of the same molecule?
**A.** 114 % of control

**Q.** `CSCCC1NC(=O)C(/C(C)=N\NC(N)=O)=C1O` (configuration not stated) was tested. Which T/C [1] did it give?
**A.** 101 % of control

**Q.** And the T/C [2]?
**A.** 103 % of control

**Q.** What about the T/C [3] of the same molecule?
**A.** 103 % of control

**Q.** And the T/C [4]?
**A.** 101 % of control

**Q.** Which results are given for `CCCc1nnn(S(=O)(=O)c2ccc([N+](=O)[O-])cc2)c1CCC`?
**A.** T/C (dose: 177.0 mg/kg/injection, schedule: Q01DX001 (ip), vehicle: other): 88 % of control; T/C (dose: 266.0 mg/kg/injection, schedule: Q01DX001 (ip), vehicle: other): 91 % of control; T/C (dose: 400.0 mg/kg/injection, schedule: Q01DX001 (ip), vehicle: other): 96 % of control; T/C (dose: 600.0 mg/kg/injection, schedule: Q01DX001 (ip), vehicle: other): 88 % of control

**Q.** How did the T/C (dose: 100.0 mg/kg/injection, schedule: Q01DX009 (ip), vehicle: other) turn out when `Cc1ccc(S(=O)(=O)NCC(=O)NC(Cc2ccc(O)cc2)C(=O)O)cc1` (stereo not drawn) (Tos-Gly-[ξY]-OH) was run?
**A.** 105 % of control

**Q.** And the T/C (dose: 200.0 mg/kg/injection, schedule: Q01DX009 (ip), vehicle: other)?
**A.** 102 % of control

**Q.** And the T/C (dose: 400.0 mg/kg/injection, schedule: Q01DX009 (ip), vehicle: other)?
**A.** 104 % of control

**Q.** What does the source list for `CCOP(=O)(Nc1ccc2c(c1)/C(=N/NC(N)=S)c1ccccc1-2)OCC`?
**A.** T/C [1]: 100 % of control; T/C [2]: 94 % of control; T/C [3]: 96 % of control; T/C [4]: 89 % of control

**Q.** What does the source list for `S=P1(Oc2ccccc2)Nc2ccccc2N1c1ccccc1` (configuration not stated)?
**A.** T/C (dose: 100.0 mg/kg/injection, schedule: Q04DX002 (ip), vehicle: saline with Tween-80): 92 % of control; T/C (dose: 200.0 mg/kg/injection, schedule: Q04DX002 (ip), vehicle: saline with Tween-80): 98 % of control; T/C (dose: 400.0 mg/kg/injection, schedule: Q04DX002 (ip), vehicle: saline with Tween-80): 95 % of control

**Q.** Which results are given for `COc1ccc(CN2CCCN(Cc3ccc(OC)cc3OC)C2c2cc(Br)ccc2O)c(OC)c1`?
**A.** T/C (dose: 50.0 mg/kg/injection, schedule: Q01DX001 (ip), vehicle: saline): 97 % of control; T/C [5]: 90 % of control; T/C [6]: 92 % of control; T/C [7]: 92 % of control

**Q.** For `C=CCC1CCCCC1`, which T/C [2] is on record?
**A.** 104 % of control

**Q.** What about the T/C [3] of the same molecule?
**A.** 105 % of control

**Q.** And the T/C [4]?
**A.** 104 % of control
